The values below come from ChEMBL document CHEMBL1909046, “DrugMatrix in vitro pharmacology data”.

By IC50 is commonly meant the point on the concentration scale where inhibition reaches its midpoint. The Ki is the equilibrium dissociation constant of an inhibitor or competing ligand from its target.

Some targets named below: Cytochrome P450 2D6 (Homo sapiens, UniProt P10635); Cytochrome P450 2C19 (Homo sapiens, UniProt P33261); Cytochrome P450 2C9 (Homo sapiens, UniProt P11712).
In another series the target is T1, Cytochrome P450 1A2 (Homo sapiens, UniProt P05177). Also: in other assays of this panel Not Active means under 50% inhibition at 10 µM.
T1 sequence (P05177 whole entry): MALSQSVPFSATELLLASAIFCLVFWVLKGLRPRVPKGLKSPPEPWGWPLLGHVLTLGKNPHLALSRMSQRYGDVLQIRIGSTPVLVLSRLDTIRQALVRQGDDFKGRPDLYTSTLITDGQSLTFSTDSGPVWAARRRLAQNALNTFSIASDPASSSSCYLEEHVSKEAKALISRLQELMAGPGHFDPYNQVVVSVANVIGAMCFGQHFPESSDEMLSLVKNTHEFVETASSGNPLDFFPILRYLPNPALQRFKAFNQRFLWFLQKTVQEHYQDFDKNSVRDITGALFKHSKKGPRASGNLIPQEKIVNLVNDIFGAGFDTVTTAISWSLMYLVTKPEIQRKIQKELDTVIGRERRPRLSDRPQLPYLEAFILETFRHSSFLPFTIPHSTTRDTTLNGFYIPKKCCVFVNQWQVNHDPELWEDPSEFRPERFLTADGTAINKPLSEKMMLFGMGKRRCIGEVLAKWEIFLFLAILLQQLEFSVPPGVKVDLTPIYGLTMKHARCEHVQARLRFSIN

Series [1] deals with T2, 5-hydroxytryptamine receptor 1A (Rattus norvegicus, UniProt P19327).
T2 sequence (P19327 whole entry): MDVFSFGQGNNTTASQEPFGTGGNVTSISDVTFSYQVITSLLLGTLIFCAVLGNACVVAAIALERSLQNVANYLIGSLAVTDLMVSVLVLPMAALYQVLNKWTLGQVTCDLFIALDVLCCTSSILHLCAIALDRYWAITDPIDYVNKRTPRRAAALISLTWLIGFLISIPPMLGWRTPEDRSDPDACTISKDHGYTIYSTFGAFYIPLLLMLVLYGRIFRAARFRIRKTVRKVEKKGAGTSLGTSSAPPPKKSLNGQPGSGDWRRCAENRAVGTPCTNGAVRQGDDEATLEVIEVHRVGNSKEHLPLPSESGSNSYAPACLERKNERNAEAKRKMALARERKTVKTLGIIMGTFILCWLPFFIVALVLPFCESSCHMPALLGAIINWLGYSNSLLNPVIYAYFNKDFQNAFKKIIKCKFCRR
The series is classed as cell membranes, CHO-K1, Membrane. The following applies: for Ki: read-out: Ki.

Series [2] concerns the target Platelet-activating factor receptor (Homo sapiens, UniProt P25105). Format: tissue-based. Also: in other assays of this panel Not Active means under 50% inhibition at 10 µM.
Another series concerns the target Cytochrome P450 3A4 (Homo sapiens, UniProt P08684). The following applies: bti-tn-5b1-4. Also: in other assays of this panel Not Active means under 50% inhibition at 10 µM.
In another series the target is T3, Androgen receptor (Rattus norvegicus, UniProt P15207). Also: in other assays of this panel Not Active means under 50% inhibition at 10 µM.
T3 sequence (P15207 whole entry): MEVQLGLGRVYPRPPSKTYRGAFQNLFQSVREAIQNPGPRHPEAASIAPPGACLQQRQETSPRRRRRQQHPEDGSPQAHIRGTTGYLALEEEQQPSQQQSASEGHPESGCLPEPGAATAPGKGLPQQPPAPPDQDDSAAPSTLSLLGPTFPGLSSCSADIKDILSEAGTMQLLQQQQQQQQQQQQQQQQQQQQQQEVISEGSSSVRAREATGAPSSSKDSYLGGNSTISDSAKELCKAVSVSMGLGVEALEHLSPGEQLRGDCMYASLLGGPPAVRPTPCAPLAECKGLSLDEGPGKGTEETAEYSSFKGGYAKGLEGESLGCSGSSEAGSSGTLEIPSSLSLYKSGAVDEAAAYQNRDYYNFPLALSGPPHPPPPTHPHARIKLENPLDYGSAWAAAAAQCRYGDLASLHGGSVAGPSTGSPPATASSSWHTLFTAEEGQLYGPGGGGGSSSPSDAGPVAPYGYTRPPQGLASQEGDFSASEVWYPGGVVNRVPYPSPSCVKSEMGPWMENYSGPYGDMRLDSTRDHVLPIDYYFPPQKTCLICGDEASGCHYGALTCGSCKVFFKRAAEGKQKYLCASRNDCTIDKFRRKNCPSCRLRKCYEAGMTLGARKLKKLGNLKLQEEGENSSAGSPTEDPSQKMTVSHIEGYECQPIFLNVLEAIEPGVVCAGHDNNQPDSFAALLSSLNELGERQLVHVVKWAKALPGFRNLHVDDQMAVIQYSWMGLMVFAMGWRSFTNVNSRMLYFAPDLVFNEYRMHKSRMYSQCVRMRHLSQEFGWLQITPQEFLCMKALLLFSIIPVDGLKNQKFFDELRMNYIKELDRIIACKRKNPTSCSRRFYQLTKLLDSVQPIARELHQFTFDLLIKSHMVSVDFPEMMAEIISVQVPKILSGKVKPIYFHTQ

Series [3] in a line: DRUGMATRIX: Calcium Channel Type L, Phenylalkylamine radioligand binding (ligand: [3H] (-)-Desmethoxyverapamil (D-888)). The following applies: Not Active = under 50% inhibition at 10 µM. Format: cell membranes, Rattus norvegicus, Wistar, Brain, Membrane.

Platelet-activating factor receptor, sequence (P25105 whole entry): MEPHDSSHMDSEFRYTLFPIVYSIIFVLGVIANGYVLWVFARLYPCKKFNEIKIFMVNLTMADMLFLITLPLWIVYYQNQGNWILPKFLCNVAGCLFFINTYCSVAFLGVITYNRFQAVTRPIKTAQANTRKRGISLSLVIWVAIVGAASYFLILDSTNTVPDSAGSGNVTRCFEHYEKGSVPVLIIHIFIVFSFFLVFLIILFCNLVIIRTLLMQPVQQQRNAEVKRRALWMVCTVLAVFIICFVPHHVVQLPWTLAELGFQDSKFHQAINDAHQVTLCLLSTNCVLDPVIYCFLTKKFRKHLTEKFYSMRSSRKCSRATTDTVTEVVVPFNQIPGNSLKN
Cytochrome P450 2D6, sequence (P10635 whole entry): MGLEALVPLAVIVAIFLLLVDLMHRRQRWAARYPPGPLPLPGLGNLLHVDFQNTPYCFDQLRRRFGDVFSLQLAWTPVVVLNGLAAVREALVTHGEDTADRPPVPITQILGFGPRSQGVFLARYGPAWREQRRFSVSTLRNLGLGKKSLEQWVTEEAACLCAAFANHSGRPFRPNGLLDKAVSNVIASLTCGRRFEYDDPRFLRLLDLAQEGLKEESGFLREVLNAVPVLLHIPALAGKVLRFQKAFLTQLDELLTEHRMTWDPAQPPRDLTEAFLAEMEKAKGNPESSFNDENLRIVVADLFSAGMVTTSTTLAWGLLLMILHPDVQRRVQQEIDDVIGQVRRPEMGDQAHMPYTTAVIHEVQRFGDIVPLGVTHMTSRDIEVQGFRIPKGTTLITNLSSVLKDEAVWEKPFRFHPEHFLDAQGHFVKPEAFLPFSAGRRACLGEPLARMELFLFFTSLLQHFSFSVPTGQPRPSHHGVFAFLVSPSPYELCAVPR
Cytochrome P450 3A4, sequence (P08684 whole entry): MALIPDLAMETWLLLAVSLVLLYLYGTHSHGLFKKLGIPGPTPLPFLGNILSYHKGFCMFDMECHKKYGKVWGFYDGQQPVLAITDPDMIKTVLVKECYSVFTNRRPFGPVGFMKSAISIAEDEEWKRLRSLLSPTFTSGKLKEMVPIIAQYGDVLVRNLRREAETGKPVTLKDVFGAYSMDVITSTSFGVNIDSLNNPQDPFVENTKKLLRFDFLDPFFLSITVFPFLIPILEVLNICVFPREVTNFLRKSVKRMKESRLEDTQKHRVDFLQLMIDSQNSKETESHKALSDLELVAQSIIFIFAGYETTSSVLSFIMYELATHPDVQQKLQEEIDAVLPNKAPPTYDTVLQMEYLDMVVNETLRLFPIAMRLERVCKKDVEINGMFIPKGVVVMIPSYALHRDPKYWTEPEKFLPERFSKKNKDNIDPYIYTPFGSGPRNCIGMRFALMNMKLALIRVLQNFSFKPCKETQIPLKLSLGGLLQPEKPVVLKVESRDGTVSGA
Cytochrome P450 2C9, sequence (P11712 whole entry): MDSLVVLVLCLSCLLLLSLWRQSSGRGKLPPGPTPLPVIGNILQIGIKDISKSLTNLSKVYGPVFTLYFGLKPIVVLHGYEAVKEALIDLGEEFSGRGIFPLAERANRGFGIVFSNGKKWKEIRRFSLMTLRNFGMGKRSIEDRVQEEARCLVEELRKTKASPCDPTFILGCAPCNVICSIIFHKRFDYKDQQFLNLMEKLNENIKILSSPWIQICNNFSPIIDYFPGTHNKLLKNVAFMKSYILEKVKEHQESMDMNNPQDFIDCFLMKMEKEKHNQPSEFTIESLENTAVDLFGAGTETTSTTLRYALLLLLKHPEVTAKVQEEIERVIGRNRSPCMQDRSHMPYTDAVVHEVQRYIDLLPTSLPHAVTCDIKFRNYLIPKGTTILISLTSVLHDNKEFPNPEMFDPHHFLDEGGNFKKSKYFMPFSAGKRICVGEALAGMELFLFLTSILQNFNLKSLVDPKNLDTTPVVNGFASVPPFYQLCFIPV
Cytochrome P450 2C19, sequence (P33261 whole entry): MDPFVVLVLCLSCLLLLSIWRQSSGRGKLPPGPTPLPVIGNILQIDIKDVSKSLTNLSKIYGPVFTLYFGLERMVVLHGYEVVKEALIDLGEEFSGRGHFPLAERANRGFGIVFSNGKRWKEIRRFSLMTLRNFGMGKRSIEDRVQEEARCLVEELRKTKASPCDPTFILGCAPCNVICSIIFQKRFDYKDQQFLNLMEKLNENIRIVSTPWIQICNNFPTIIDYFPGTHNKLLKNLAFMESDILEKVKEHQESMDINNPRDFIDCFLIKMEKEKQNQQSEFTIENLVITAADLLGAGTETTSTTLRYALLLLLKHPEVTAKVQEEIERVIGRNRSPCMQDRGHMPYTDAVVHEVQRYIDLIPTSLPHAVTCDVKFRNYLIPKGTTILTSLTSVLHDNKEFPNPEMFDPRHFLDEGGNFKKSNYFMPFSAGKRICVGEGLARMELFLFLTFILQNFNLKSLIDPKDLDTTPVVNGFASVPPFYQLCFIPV

For the compound `Clc1ccc(COC(Cn2ccnc2)c2ccc(Cl)cc2Cl)cc1` (configuration not stated) [ECONAZOLE], the IC50 at Cytochrome P450 1A2 was 300 nM; against Cytochrome P450 2D6 it was 400 nM; on Cytochrome P450 2C19 it was 40 nM; in series [1] (read-out: IC50) it was 16200 nM; in [2], “Not Active”. Moreover, in series [1], the Ki stood at 9240 nM.
In the case of `CCN(CC)CCOc1ccc(/C(=C(/Cl)c2ccccc2)c2ccccc2)cc1` [ENCLOMIPHENE], the IC50 result is “Not Active” at Cytochrome P450 3A4; “Not Active” at Androgen receptor; 10000 nM against Cytochrome P450 2D6; “Not Active” in series [1] (cho-k1); “Not Active” in series [2]. In addition, the Ki entry at Cytochrome P450 3A4 is on record as “Not Active”.
Regarding `CO[C@@H]1[C@@H](OC)[C@H](C)[C@@](O)(CC(=O)O)O[C@H]1[C@H](C)[C@H]1O[C@@]2(CC[C@@](C)([C@H]3CC[C@@](C)([C@@H]4O[C@@H]([C@H]5O[C@](C)(O)[C@H](C)C[C@@H]5C)C[C@@H]4O[C@@H]4C[C@H](OC)[C@@H](OC)[C@H](C)O4)O3)O2)C[C@H](O)[C@H]1C` [MADURAMICIN ACID], the IC50 entry was “Not Active” at Cytochrome P450 3A4; “Not Active” in [3]; 1000 nM against Cytochrome P450 2D6; 7.83 nM in series [1] (read-out: IC50); “Not Active” in series [2]. Further, the Ki result at Cytochrome P450 3A4 was “Not Active”; in [3] it was “Not Active”; in series [1], 4.47 nM.
As to `CN[C@H]1CC[C@@H](c2ccc(Cl)c(Cl)c2)c2ccccc21` [SERTRALINE], the IC50 entry was “Not Active” against Cytochrome P450 3A4, 1000 nM against Cytochrome P450 2C19, “Not Active” in series [1] (cho-k1) and “Not Active” in series [2]. For the same compound, the Ki result on Cytochrome P450 3A4 is listed as “Not Active”.
For the compound `NC(=O)N1C(=O)/C(=C(\O)c2cccs2)c2cc(Cl)ccc21` [TENIDAP], the IC50 result at Cytochrome P450 3A4 was “Not Active”; in [3], “Not Active”; against Cytochrome P450 1A2 it was 1000 nM; on Androgen receptor, “Not Active”; against Cytochrome P450 2C9, 700 nM; in series [1] (cho-k1), “Not Active”. Moreover, the IC50 result in series [2] is recorded as “Not Active”. The Ki result (at Cytochrome P450 3A4; in [3]) was “Not Active” throughout.
Regarding `O=C(Nc1ccc(Br)cc1)c1cc(Br)cc(Br)c1O` [TRIBROMSALAN], the IC50 result against Cytochrome P450 3A4 is “Not Active”; in series [3], “Not Active”; at Cytochrome P450 1A2, 2000 nM; on Cytochrome P450 2C9, 2000 nM; in [1] (cho-k1), “Not Active”; in series [2], “Not Active”. The Ki entry (at Cytochrome P450 3A4; in [3]) was “Not Active” each time.
